One assay deals with MUC1-fs. Description: High-content imaging assay of MUC1-fs total cytoplasm intensity in P cells. It counts as cell-based. As to conditions: for EC50: MUC1-fs total cytoplasm intensity, P cells, 48 hr incubation; for ECMax: MUC1-fs, DMSO = 0, JQ1 (250 nM) = −100% activity. The method, then: (§1) P cells were seeded 24 hr prior to compound treatment at a density of 12,000 cells/well in 384 well Cell Carrier Ultra plates (6057308, Perkin Elmer), pre-coated with 0.25 mg/mL Synthemax 11 SC Substrate (3535, Corning). Compounds were used at 5 doses (35, 3.5, 0.35, 0.035 and 0.0035 μM) for the primary screen and 10 doses (16, 5.6, 1.8, 0.6, 0.21, 0.07, 0.02, 0.008, 0.002 and 0.0008 μM) for the following screens. The compounds, in two replicates, were transferred from compound source plates to the cell plates using the HighRes Pin Tool. DMSO was used as a negative control and JQ1 (250 nM) (a bromodomain inhibitor) was chosen as a positive control, based on earlier studies showing its potent effect on reducing total MUC1 mRNA levels (data not shown). After 48 hr incubation, cells were fixed for 20 min in 4% PFA (Electron Microscopy Sciences) in PBS, washed twice, then permeabilized (10 min) with 0.5% Triton-X100 (X100-100MVL, Sigma-Aldrich) in PBS and washed once more. Cells were blocked for 10 min at RT with Blocking solution (100 mM Tris HCL pH8; l150 mM NaCL; 5 g/L Blocking Reagent [11096176001, Roche]), then incubated 90 min at RT with one of the following primary antibodies in Roche Blocking solution: 1:500, monoclonal Fab-A-V5H anti-MUC1-fs, AbD22655.2, Bio-Rad; 1:2000, monoclonal mouse anti-MUC1 (214D4), 05-652-KC, Millipore; 1:1000, monoclonal, Rabbit anti-GM130 (D6B1) XP, 12480, Cell signaling technology. The primary antibody cocktail was incubated at RT for 1.5 hr, followed by four PBS wash cycles. The secondary antibody cocktail contained four components that were all prepared at a 1:1000 dilution in the Roche blocking solution and consisted of Alexa Fluor® 488-conjugated AffiniPure F(ab′)2 Fragment Goat anti-Human IgG, 109-546-097, Jackson Immunoresearch; Alexa Fluor® 647-conjugated Goat anti-Rabbit IgG, A-21246, Thermo Fisher Scientific®; Alexa Fluor® 546 Goat anti-mouse IgG, A-21123, Thermo Fisher Scientific® and Hoechst 33342 stain (62249, Thermo Fisher Scientific®). The secondary antibody cocktail was incubated at RT for 45 min, followed by four PBS wash cycles. Finally, plates were sealed with a Plate Loc plate and stored in Liconic incubator at 10° C. until imaging. Following image analysis, three parameters were selected, i) MUC1-fs and ii) MUC1-wt total cytoplasm intensity (averaged per cell) and iii) cell number as was detected by Hoechst 33342 stained nuclei. The levels of MUC1-fs and MUC1-wt found following DMSO and JQ1 were defined as 0 and −100% activity, respectively. The values obtained for all compounds were normalized accordingly. Cell number was normalized to DMSO control.
(§2) The pure enantiomers were profiled in the high-content imaging assay for the ability to reduce the amount of FS MUC1 protein in the cytoplasm (Table 48) following the procedure of Example 4.

The subject of a further assay is MUC1-wt. The assay can be described thus: High-content imaging assay of MUC1-wt total cytoplasm intensity in P cells. As to conditions: for EC50: MUC1-wt total cytoplasm intensity, P cells, 48 hr incubation; for WT ECMax: MUC1-wt, DMSO = 0, JQ1 (250 nM) = −100% activity. It counts as cell-based. Here is the method: as §1, §2

SMILES strings stand for the structures.

Consider `Cl.N[C@H]1[C@H]2CC[C@H](C2)[C@@H]1c1ccccc1` (single isomer, unassigned) [Compound 120-P2], for which, in the assay with MUC1-fs, the EC50 was over 32 µM and the ECMax is recorded as −24.61%. In the assay with MUC1-wt, the EC50 was over 32 µM and the “WT ECMax” value is on record as −11.21%.

As to `Cl.N[C@@H]1[C@H]2CC[C@H](C2)[C@H]1c1ccccc1` (single isomer, unassigned) [Compound 121-P2], in the assay with MUC1-fs, the EC50 was over 32 µM and the ECMax is given as −9.03%. Also, in the assay with MUC1-wt, the EC50 is over 32 µM and the “WT ECMax” value is 7.35%.

As for `CC(C)[C@@H]1[C@@H]2CC[C@@H](C2)[C@H]1N.Cl` [Compound 101], in the assay on MUC1-fs, the EC50 stood at 0.524 µM and the ECMax is −68.74%. Besides, in the assay on MUC1-wt, the EC50 was 12.3 µM and the “WT ECMax” value was 18.4%.

For the molecule `CC(C)[C@H]1[C@H]2CC[C@H](C2)[C@@H]1N.Cl` [Compound 102], in the assay on MUC1-fs, the response was half-maximal at 8.63 µM (EC50) and the ECMax is listed as −60.66%. In addition, in the assay on MUC1-wt, the EC50 was over 32 µM and the “WT ECMax” value is given as −16.83%.

As for `CCC[C@@H]1[C@H]2CC[C@H](C2)[C@H]1N.Cl` [Compound 107-P1], in the assay with MUC1-fs, the EC50 came to 25.8 µM and the ECMax was −15.72%. Moreover, in the assay with MUC1-wt, the EC50 was over 32 µM and the “WT ECMax” value is 14.07%.

As to `CCC[C@H]1[C@@H]2CC[C@@H](C2)[C@@H]1N.Cl` [Compound 107-P2], in the assay with MUC1-fs, the EC50 was over 32 µM and the ECMax is on record as −9.6%. In the assay with MUC1-wt, the concentration giving a half-maximal response (EC50) is over 32 µM and the “WT ECMax” value turned out to be 8.96%.

`CCC[C@H]1[C@H]2CC[C@H](C2)[C@@H]1N.Cl` [Compound 108-P1]: in the assay with MUC1-fs, the EC50 worked out at 29.9 µM and the ECMax is on record as −24.9%. In addition, in the assay with MUC1-wt, the EC50 was over 32 µM and the “WT ECMax” value is reported as −12.05%.

Regarding `CCC[C@@H]1[C@@H]2CC[C@@H](C2)[C@H]1N.Cl` [Compound 108-P2], in the assay with MUC1-fs, the EC50 came out at 5.6 µM and the ECMax turned out to be 22.43%. In addition, in the assay on MUC1-wt, the EC50 is over 32 µM and the “WT ECMax” value turned out to be 16.1%.

As a reminder, the EC50 is the concentration at which the effect is half-maximal. Low values mean higher potency in that assay, high ones lower potency in that assay.

The values are drawn from patent US20240116850A1, “COMPOSITIONS AND METHODS RELATED TO BICYCLO[2.2.1] HEPTANAMINE-CONTAINING COMPOUNDS” (The Broad Institute, Inc., priority 2020, published 2024).
